Data reported in ChEMBL document CHEMBL1201862, “PubChem BioAssay data set” (2004).
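Following 48 hours of exposure in 96-well plates, responses at five concentrations were used to interpolate endpoints linearly. Abbreviation: GI50, concentration required for 50% inhibition of growth.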 Calls of active or inactive are those of the source. No stated cut-off is given here; in the data, active = GI50 up to about 1.1 µM and inactive = higher.

Key:
Test in all cases: inhibition of tumour cell growth, NCI panel, 48 h
786-0 = tested on: 786-0
A498 = tested on: A498
A549 = tested on: A549
ACHN = tested on: ACHN
BT-549 = tested on: BT-549
CAKI-1 = tested on: CAKI-1
CCRF-CEM = tested on: CCRF-CEM
COLO 205 = tested on: COLO 205
DU-145 = tested on: DU-145
EKVX = tested on: EKVX
HCC 2998 = tested on: HCC 2998
HCT-116 = tested on: HCT-116
HCT-15 = tested on: HCT-15
HL-60 = tested on: HL-60
HOP-62 = tested on: HOP-62
HOP-92 = tested on: HOP-92
HT-29 = tested on: HT-29
Hs-578T = tested on: Hs-578T
IGROV-1 = tested on: IGROV-1
K562 = tested on: K562
KM12 = tested on: KM12
LOX IMVI = tested on: LOX IMVI
M14 = tested on: M14
MDA-MB-231 = tested on: MDA-MB-231
MDA-MB-435 = tested on: MDA-MB-435
MDA-N = tested on: MDA-N
MOLT-4 = tested on: MOLT-4
Malme-3M = tested on: Malme-3M
NCI-H226 = tested on: NCI-H226
NCI-H23 = tested on: NCI-H23
NCI-H460 = tested on: NCI-H460
NCI-H522 = tested on: NCI-H522
NCI/ADR-RES = tested on: NCI/ADR-RES
OVCAR-3 = tested on: OVCAR-3
OVCAR-4 = tested on: OVCAR-4
OVCAR-8 = tested on: OVCAR-8
PC-3 = tested on: PC-3
RPMI-8226 = tested on: RPMI-8226
RXF 393 = tested on: RXF 393
SF-268 = tested on: SF-268
SF-295 = tested on: SF-295
SK-MEL-28 = tested on: SK-MEL-28
SK-MEL-2 = tested on: SK-MEL-2
SK-MEL-5 = tested on: SK-MEL-5
SK-OV-3 = tested on: SK-OV-3
SN12C = tested on: SN12C
SNB-19 = tested on: SNB-19
SNB-75 = tested on: SNB-75
SR = tested on: SR
SW-620 = tested on: SW-620
T47D = tested on: T47D
TK-10 = tested on: TK-10
U-251 = tested on: U-251
UACC-257 = tested on: UACC-257
UACC-62 = tested on: UACC-62
UO-31 = tested on: UO-31
MCF7 = tested on: MCF7
OVCAR-5 = tested on: OVCAR-5
SF-539 = tested on: SF-539

Measured: GI50

Nc1ccc(-c2nc3ccccc3s2)cc1CO
61.8 µM: HCT-15
active: A498 < 0.01 µM | NCI-H226 < 0.01 µM
inactive: 786-0 > 100 µM | A549 > 58.7 µM | ACHN 13.5 µM | BT-549 47.3 µM | CAKI-1 2.9 µM | CCRF-CEM > 51.2 µM | COLO 205 > 100 µM | DU-145 > 94.8 µM | EKVX 7.46 µM | HCC 2998 > 100 µM | HCT-116 74.6 µM | HL-60 39 µM | HOP-62 31.5 µM | HOP-92 > 54.8 µM | HT-29 > 100 µM | Hs-578T > 83.6 µM | IGROV-1 > 68.5 µM | K562 6.05 µM | KM12 41.7 µM | LOX IMVI 84.3 µM | M14 64.6 µM | MDA-MB-231 > 70 µM | MDA-MB-435 > 87.5 µM | MDA-N > 86.3 µM | MOLT-4 16.5 µM | Malme-3M > 100 µM | NCI-H23 60.5 µM | NCI-H460 68.4 µM | NCI-H522 52.8 µM | NCI/ADR-RES > 79.8 µM | OVCAR-3 > 100 µM | OVCAR-4 > 39.2 µM | OVCAR-8 > 77.6 µM | PC-3 66.8 µM | RPMI-8226 49.1 µM | RXF 393 > 100 µM | SF-268 > 73.5 µM | SF-295 36.5 µM | SK-MEL-28 > 100 µM | SK-MEL-2 > 85.7 µM | SK-MEL-5 49.4 µM | SK-OV-3 > 100 µM | SN12C 45.8 µM | SNB-19 50.6 µM | SNB-75 > 100 µM | SR > 84.3 µM | SW-620 > 100 µM | T47D 33.2 µM | TK-10 > 100 µM | U-251 > 76.4 µM | UACC-257 > 87.7 µM | UACC-62 6.79 µM | UO-31 10.5 µM

Cc1ccc(S(=O)(=O)NC(=O)NC(CO)C(=O)O)cc1 (stereo not drawn)
> 100 µM: HCT-15
inactive: 786-0 > 100 µM | A549 > 100 µM | ACHN > 100 µM | BT-549 > 100 µM | CCRF-CEM > 100 µM | COLO 205 > 100 µM | DU-145 > 100 µM | HCT-116 > 100 µM | HL-60 > 100 µM | HOP-62 > 100 µM | HOP-92 > 100 µM | HT-29 > 100 µM | Hs-578T > 100 µM | IGROV-1 > 100 µM | K562 > 100 µM | KM12 > 100 µM | LOX IMVI > 100 µM | M14 > 100 µM | MCF7 > 100 µM | MDA-MB-231 > 100 µM | MDA-N > 100 µM | MOLT-4 > 100 µM | Malme-3M > 100 µM | NCI-H23 > 100 µM | NCI-H460 > 100 µM | NCI-H522 > 100 µM | NCI/ADR-RES > 100 µM | OVCAR-4 > 100 µM | OVCAR-5 > 100 µM | OVCAR-8 > 100 µM | PC-3 > 100 µM | RPMI-8226 > 100 µM | RXF 393 > 100 µM | SF-268 > 100 µM | SF-295 > 100 µM | SF-539 > 100 µM | SK-MEL-28 > 100 µM | SK-MEL-2 > 100 µM | SK-MEL-5 > 100 µM | SK-OV-3 > 100 µM | SN12C > 100 µM | SNB-19 > 100 µM | SNB-75 > 100 µM | SR > 100 µM | SW-620 > 100 µM | T47D > 100 µM | TK-10 > 100 µM | U-251 > 100 µM | UACC-257 > 100 µM | UACC-62 > 100 µM | UO-31 > 100 µM
